Data published in ChEMBL document CHEMBL4814020, “Nonbisphosphonate inhibitors of Plasmodium falciparum FPPS/GGPPS” (Bioorg Med Chem Lett, 2021).
In brackets after ≈: the same amount, converted by molar mass.

Legend:
[1] = Inhibition of recombinant Plasmodium falciparum N-terminal His6-tagged GGPPS expressed in Escherichia coli expression system assessed as reduction in pyrophosphate release using GPP as substrate incubated for 30 mins followed by substrate addition by PPiLight detection reagent based luminescence assay
[2] = molecular target: T1, Geranylgeranyl pyrophosphate synthase (Homo sapiens, UniProt O95749); test: Inhibition of recombinant human N-terminal His6-tagged GGPPS assessed as reduction in pyrophosphate release using GPP as substrate upto 200 uM incubated for 30 mins followed by substrate addition by PPiLight detection reagent based luminescence assay; conditions: 0.5 h
T1 sequence (O95749 whole entry): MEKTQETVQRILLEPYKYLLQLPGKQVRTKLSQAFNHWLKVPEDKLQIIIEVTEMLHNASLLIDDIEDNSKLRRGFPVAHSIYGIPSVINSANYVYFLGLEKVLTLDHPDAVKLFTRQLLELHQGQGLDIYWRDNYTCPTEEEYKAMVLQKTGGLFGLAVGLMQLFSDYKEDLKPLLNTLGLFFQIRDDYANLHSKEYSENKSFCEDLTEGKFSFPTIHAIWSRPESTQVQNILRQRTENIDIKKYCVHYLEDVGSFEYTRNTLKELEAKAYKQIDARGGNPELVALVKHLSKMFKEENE

[3] = molecular target: T2, Farnesyl pyrophosphate synthase (Homo sapiens, UniProt P14324); test: Inhibition of recombinant human N-terminal His6-tagged FPPS assessed as reduction in pyrophosphate release using GPP as substrate upto 200 uM incubated for 30 mins followed by substrate addition by PPiLight detection reagent based luminescence assay; conditions: 0.5 h
T2 sequence (P14324 whole entry): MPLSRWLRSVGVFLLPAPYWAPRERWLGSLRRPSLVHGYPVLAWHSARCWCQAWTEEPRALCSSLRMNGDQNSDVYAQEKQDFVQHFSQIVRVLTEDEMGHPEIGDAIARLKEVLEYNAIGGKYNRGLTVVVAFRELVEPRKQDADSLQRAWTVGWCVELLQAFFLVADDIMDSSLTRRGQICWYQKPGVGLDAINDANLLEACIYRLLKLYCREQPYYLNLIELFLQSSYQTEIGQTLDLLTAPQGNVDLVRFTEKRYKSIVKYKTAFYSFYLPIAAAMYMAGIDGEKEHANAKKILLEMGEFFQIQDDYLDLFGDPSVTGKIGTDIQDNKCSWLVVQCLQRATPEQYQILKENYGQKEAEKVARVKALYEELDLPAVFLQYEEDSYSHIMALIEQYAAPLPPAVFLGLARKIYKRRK

Plasmodium falciparum = test: Antimalarial activity against Plasmodium falciparum infected in human RBC assessed as reduction in parasite growth measured after 72 hrs by flow cytometry analysis; type: functional, organism-based; conditions: Erythrocyte
[4] = Lipophilicity, logD of the compound in octanol-buffer at pH 7.4 measured after 18 hrs under shaking condition by reverse phase HPLC-MS analysis; type: physicochemical
[5] = Metabolic stability in human liver microsomes assessed as intrinsic clearance; type: ADME, Microsome; conditions: read-out: CLH
[6] = Metabolic stability in mouse liver microsomes assessed as intrinsic clearance; type: ADME, Microsome; conditions: read-out: CLH
MDR1 [7] = test: Apparent permeability in pig LLC-PK1 cells expressing MDR1 measured upto 360 mins; type: ADME, cell-based, Sus scrofa
MDR1 [8] = test: Efflux ratio of apparent permeability in pig LLC-PK1 cells expressing MDR1 measured upto 360 mins; type: ADME, cell-based, Sus scrofa
[9] = Kinetic solubility of compound; type: physicochemical; conditions: read-out: Kinetic_solubility
[10] = Fraction unbound in iv dosed C57BL/6J mouse; type: ADME, organism-based; conditions: in vivo
[11] = Clearance in iv dosed C57BL/6J mouse; type: ADME, organism-based; conditions: in vivo
[12] = MRT in iv dosed C57BL/6J mouse; type: ADME, organism-based; conditions: in vivo
[13] = Volume of distribution in iv dosed C57BL/6J mouse; type: ADME, organism-based; conditions: in vivo
[14] = AUC in iv dosed C57BL/6J mouse; type: ADME, organism-based; conditions: in vivo

Row | IC50 [1] [nM] | inhibition (INH) [2] | inhibition (INH) [3] | Structure (SMILES) | also measured
1 | 3150 | Not Active | Not Active | CC1CCN(CCCNC(=O)c2cnc(-c3ccccc3)s2)C1 (stereo not drawn) | –
2 | 800 | Not Active | Not Active | O=C(NCCCN1CCCCCC1)c1cnc(-c2ccccc2)s1 | –
3 | 3100 | Not Active | Not Active | O=C(NCCCN1CCCC1)c1cnc(-c2ccccc2)s1 | –
4 | 6060 | Not Active | Not Active | COC1CCN(CCCNC(=O)c2cnc(-c3ccccc3)s2)CC1 | –
5 | > 10000 | Not Active | Not Active | O=C(NCCCN1CCCCCC1=O)c1cnc(-c2ccccc2)s1 | –
6 | 12000 | Not Active | Not Active | O=C(NCCCN1CCOCC1)c1cnc(-c2ccccc2)s1 | –
7 | 6000 | Not Active | Not Active | CN(C)CCCNC(=O)c1cnc(-c2ccccc2)s1 | –
8 | > 10000 | Not Active | Not Active | CC1CCCN1CCCNC(=O)c1cnc(-c2ccccc2)s1 (stereo not drawn) | –
9 | 2150 | Not Active | Not Active | O=C(NCCCN1CCCCC1)c1cnc(-c2ccccc2)s1 | –
10 | 2790 | Not Active | Not Active | O=C(NCCCN1CCC(F)CC1)c1cnc(-c2ccccc2)s1 | –
11 | 960 | Not Active | Not Active | O=C(NCCCN1CCCCCC1)c1ncc(-c2ccccc2)s1 | –
12 | 1340 | Not Active | Not Active | O=C(NCCCN1CCCCCC1)c1ccc(-c2ccccc2)s1 | –

Further lines, the molecule ahead of its results:

Row | Structure (SMILES) | IC50 [1] [nM] | inhibition (INH) [2] | inhibition (INH) [3] | also measured
13 | Cn1c(-c2ccccc2)cnc1C(=O)NCCCN1CCCCCC1 | 13000 | Not Active | Not Active | –
14 | O=C(CCCN1CCCCCC1)Nc1cnc(-c2ccc(F)c(F)c2)s1 | 1050 | Not Active | Not Active | IC50 (Plasmodium falciparum): 40 nM; logD at 18 h [4]: 2.3; microsomal CLint [5]: 42 µL/min/mg; microsomal CLint [6]: 10 µL/min/mg; Papp at 6 h (MDR1 [7]): 5.2 ×10⁻⁶ cm/s; efflux ratio at 6 h (MDR1 [8]): 1.1; solubility kinetic [9]: > 94 µg/mL
15 | O=C(NCCCN1CCCCCC1)c1nnc(-c2ccccc2)s1 | 1040 | Not Active | Not Active | –
16 | O=C(CCCN1CCCCCC1)Nc1cnc(-c2cccc(F)c2)s1 | 1420 | Not Active | Not Active | –
17 | O=C(NCCCN1CCCCCC1)c1cc(-c2ccccc2)ccn1 | 6080 | Not Active | Not Active | –
18 | Cc1nc(C(=O)NCCCN2CCCCCC2)sc1-c1ccccc1 | 1030 | Not Active | Not Active | –
19 | O=C(CCCN1CCCCC1)Nc1cnc(-c2ccc(F)cc2)s1 | 1610 | Not Active | Not Active | IC50 (Plasmodium falciparum): 73 nM; logD at 18 h [4]: 1.81; microsomal CLint [5]: 15 µL/min/mg; microsomal CLint [6]: 14 µL/min/mg; Papp at 6 h (MDR1 [7]): 10.5 ×10⁻⁶ cm/s; efflux ratio at 6 h (MDR1 [8]): 1; solubility kinetic [9]: > 94 µg/mL
20 | Cc1c(C(=O)NCCCN2CCCCCC2)noc1-c1ccccc1 | 2030 | Not Active | Not Active | –
21 | O=C(CCCN1CCCCCC1)Nc1cnc(-c2ccccc2)s1 | 1830 | Not Active | Not Active | –
22 | O=C(NCCCN1CCCCCC1)c1cc(-c2ccccc2)on1 | 1800 | Not Active | Not Active | –
23 | O=C(NCCCN1CCCCCC1)c1nnc(-c2ccccc2)o1 | 8120 | Not Active | Not Active | –
24 | Cc1nc(-c2ccccc2)sc1C(=O)NCCCN1CCCCCC1 | 3790 | Not Active | Not Active | –
25 | O=C(CCCN1CCCCCC1)Nc1cnc(-c2ccc(F)cc2)s1 | 1330 | Not Active | Not Active | IC50 (Plasmodium falciparum): 37 nM; logD at 18 h [4]: 1.93; microsomal CLint [5]: 29 µL/min/mg; microsomal CLint [6]: 18 µL/min/mg; Papp at 6 h (MDR1 [7]): 9.5 ×10⁻⁶ cm/s; efflux ratio at 6 h (MDR1 [8]): 1.1; solubility kinetic [9]: > 97 µg/mL
26 | O=C(CCCN1CCCCCC1)Nc1cnc(-c2ccccc2F)s1 | 950 | Not Active | Not Active | –
27 | O=C(NCCCN1CCCCCC1)c1ncc(-c2ccccc2)o1 | 2380 | Not Active | Not Active | –
28 | COc1cc(-c2ncc(NC(=O)CCCN3CCCCCC3)s2)ccc1F | 500 | Not Active | Not Active | –
29 | O=C(CCCN1CCCCCC1)Nc1nnc(-c2ccc(F)cc2)s1 | 1800 | Not Active | Not Active | IC50 (Plasmodium falciparum): 72 nM; logD at 18 h [4]: 1.97; microsomal CLint [5]: 39 µL/min/mg; microsomal CLint [6]: < 1 µL/min/mg; Papp at 6 h (MDR1 [7]): 12.6 ×10⁻⁶ cm/s; efflux ratio at 6 h (MDR1 [8]): 0.9; solubility kinetic [9]: > 91 µg/mL
30 | O=C(CCCN1CCCOCC1)Nc1cnc(-c2ccc(F)cc2F)s1 | 1940 | Not Active | Not Active | IC50 (Plasmodium falciparum): 74 nM; logD at 18 h [4]: 2.41; microsomal CLint [5]: < 1 µL/min/mg; microsomal CLint [6]: 22 µL/min/mg; Papp at 6 h (MDR1 [7]): 9.2 ×10⁻⁶ cm/s; efflux ratio at 6 h (MDR1 [8]): 1.5; solubility kinetic [9]: > 100 µg/mL; fraction unbound [10]: 0.09; clearance [11]: 25.3 mL/min/kg; MRT [12]: 2.63 h; Vd [13]: 4 L/kg; AUC [14]: 65.8 ng·h/mL
31 | O=C(CCCN1CCCCCC1)Nc1cnc(-c2ccc(F)cc2F)s1 | 930 | Not Active | Not Active | IC50 (Plasmodium falciparum): 38 nM; logD at 18 h [4]: 2.11; microsomal CLint [5]: 42 µL/min/mg; microsomal CLint [6]: 24 µL/min/mg; Papp at 6 h (MDR1 [7]): 8.7 ×10⁻⁶ cm/s; efflux ratio at 6 h (MDR1 [8]): 0.8; solubility kinetic [9]: > 97 µg/mL
32 | O=C(NCCCN1CCCCCC1)c1cc(-c2ccccc2)cs1 | 2480 | Not Active | Not Active | –
33 | Cn1c(=O)c2cc(C(=O)NCCCN3CCCCCC3)sc2c2ccccc21 | 820 | Not Active | Not Active | IC50 (Plasmodium falciparum): 90 nM; logD at 18 h [4]: 1.89; microsomal CLint [5]: < 1 µL/min/mg; microsomal CLint [6]: 483 µL/min/mg; Papp at 6 h (MDR1 [7]): 4.1 ×10⁻⁶ cm/s; efflux ratio at 6 h (MDR1 [8]): 6.8; solubility kinetic [9]: 69 µg/mL (≈ 174 µM)
